# Results: PMC6704710, “Preclinical evaluation of 3D185, a novel potent inhibitor of FGFR1/2/3 and CSF-1R, in FGFR-dependent and macrophage-dominant cancer models” (Journal of Experimental & Clinical Cancer Research : CR, 2019)
# Tests used:
# Test in all cases: Eurofins kinase panel
# Type in all cases: biochemical
# Details in all cases: read-out: Inhibition rate (%)
# FAK(h) = molecular target: T1, FAK(h) (Homo sapiens, UniProt Q05397)
# T1 construct: purchased Eurofins (KinaseProfiler)
# DYRK1B(h) = molecular target: T2, DYRK1B(h) (Homo sapiens, UniProt Q9Y463)
# T2 construct: purchased Eurofins (KinaseProfiler)
# MEK1(h) = molecular target: T3, MEK1(h) (Homo sapiens, UniProt Q02750)
# T3 construct: purchased Eurofins (KinaseProfiler)
# STK33(h) = molecular target: T4, STK33(h) (Homo sapiens, UniProt Q9BYT3)
# T4 construct: purchased Eurofins (KinaseProfiler)
# Src(T341M)(h) = molecular target: T5, Src(T341M)(h) (Homo sapiens, UniProt P12931, T341M)
# T5 construct: purchased Eurofins (KinaseProfiler)
# LOK(h) = molecular target: T6, LOK(h) (Homo sapiens, UniProt O94804)
# T6 construct: purchased Eurofins (KinaseProfiler)
# TAO3(h) = molecular target: T7, TAO3(h) (Homo sapiens, UniProt Q9H2K8)
# T7 construct: purchased Eurofins (KinaseProfiler)
# T7 sequence (Q9H2K8 1-898): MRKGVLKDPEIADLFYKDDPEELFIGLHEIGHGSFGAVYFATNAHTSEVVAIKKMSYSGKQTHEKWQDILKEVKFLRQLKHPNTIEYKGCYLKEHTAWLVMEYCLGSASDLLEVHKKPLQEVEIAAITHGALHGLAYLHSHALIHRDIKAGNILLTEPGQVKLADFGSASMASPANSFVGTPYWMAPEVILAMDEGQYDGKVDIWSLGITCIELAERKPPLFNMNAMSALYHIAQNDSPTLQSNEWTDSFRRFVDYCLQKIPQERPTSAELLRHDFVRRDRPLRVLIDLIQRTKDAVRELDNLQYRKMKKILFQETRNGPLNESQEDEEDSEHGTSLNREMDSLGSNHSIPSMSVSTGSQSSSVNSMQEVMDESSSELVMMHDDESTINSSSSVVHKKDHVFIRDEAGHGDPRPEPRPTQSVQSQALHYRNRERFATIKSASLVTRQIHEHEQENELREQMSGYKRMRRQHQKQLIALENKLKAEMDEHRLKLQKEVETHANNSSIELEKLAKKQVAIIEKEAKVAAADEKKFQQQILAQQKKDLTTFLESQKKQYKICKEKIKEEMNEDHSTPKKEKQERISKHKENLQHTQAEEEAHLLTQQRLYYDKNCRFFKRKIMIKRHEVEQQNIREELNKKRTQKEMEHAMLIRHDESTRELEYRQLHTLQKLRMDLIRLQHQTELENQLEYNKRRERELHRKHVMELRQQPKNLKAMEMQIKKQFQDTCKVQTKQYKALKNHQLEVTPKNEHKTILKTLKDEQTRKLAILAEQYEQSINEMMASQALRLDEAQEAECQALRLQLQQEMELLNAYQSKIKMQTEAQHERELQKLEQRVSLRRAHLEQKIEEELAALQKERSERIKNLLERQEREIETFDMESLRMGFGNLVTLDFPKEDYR
# VRK2(h) = molecular target: T8, VRK2(h) (Homo sapiens, UniProt Q86Y07)
# T8 construct: purchased Eurofins (KinaseProfiler)
# [1] = molecular target: T9, PI3 Kinase (p110δ/p85α)(h) (Homo sapiens, UniProt O00329)
# T9 construct: purchased Eurofins (KinaseProfiler)
# PKCβI(h) = molecular target: T10, PKCβI(h) (Homo sapiens, UniProt P05771)
# T10 construct: purchased Eurofins (KinaseProfiler)
# PDK1(h) = molecular target: T11, PDK1(h) (Homo sapiens, UniProt O15530)
# T11 construct: purchased Eurofins (KinaseProfiler)
# T11 sequence (O15530 1-556): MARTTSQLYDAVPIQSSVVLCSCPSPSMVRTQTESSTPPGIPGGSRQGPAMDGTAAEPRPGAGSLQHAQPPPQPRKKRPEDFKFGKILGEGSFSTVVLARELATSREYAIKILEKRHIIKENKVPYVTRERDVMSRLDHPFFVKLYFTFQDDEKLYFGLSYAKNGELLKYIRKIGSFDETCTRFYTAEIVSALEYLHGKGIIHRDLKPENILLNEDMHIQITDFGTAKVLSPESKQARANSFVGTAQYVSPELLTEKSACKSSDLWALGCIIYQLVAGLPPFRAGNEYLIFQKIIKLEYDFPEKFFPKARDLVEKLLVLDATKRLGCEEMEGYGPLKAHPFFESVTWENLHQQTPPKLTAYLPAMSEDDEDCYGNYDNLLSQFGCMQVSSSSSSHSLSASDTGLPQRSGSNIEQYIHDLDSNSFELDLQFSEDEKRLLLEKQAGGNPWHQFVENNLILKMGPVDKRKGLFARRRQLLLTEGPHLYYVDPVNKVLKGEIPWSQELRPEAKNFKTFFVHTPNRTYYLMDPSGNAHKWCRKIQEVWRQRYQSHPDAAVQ
# TYK2(h) = molecular target: T12, TYK2(h) (Homo sapiens, UniProt P29597)
# T12 construct: purchased Eurofins (KinaseProfiler)
# CDK18/cyclinY(h) = molecular target: T13, CDK18/cyclinY(h) (Homo sapiens, UniProt Q07002)
# T13 construct: purchased Eurofins (KinaseProfiler)
# NIM1(h) = molecular target: T14, NIM1(h) (Homo sapiens, UniProt Q8IY84)
# T14 construct: purchased Eurofins (KinaseProfiler)
# T8 sequence (Q86Y07 whole entry): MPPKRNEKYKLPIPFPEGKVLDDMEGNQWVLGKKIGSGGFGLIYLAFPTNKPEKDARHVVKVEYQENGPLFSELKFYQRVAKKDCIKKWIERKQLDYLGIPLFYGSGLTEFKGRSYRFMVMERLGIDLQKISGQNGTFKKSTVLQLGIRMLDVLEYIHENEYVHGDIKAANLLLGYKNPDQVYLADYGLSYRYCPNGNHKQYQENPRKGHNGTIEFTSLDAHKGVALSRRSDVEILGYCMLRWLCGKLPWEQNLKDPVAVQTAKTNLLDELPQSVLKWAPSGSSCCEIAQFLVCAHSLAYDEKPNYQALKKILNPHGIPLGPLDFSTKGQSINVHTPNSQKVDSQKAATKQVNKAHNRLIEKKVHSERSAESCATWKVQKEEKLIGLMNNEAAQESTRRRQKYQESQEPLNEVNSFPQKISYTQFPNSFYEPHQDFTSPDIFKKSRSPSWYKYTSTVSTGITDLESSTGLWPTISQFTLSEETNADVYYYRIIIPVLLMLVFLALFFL
# T13 sequence (Q07002 whole entry): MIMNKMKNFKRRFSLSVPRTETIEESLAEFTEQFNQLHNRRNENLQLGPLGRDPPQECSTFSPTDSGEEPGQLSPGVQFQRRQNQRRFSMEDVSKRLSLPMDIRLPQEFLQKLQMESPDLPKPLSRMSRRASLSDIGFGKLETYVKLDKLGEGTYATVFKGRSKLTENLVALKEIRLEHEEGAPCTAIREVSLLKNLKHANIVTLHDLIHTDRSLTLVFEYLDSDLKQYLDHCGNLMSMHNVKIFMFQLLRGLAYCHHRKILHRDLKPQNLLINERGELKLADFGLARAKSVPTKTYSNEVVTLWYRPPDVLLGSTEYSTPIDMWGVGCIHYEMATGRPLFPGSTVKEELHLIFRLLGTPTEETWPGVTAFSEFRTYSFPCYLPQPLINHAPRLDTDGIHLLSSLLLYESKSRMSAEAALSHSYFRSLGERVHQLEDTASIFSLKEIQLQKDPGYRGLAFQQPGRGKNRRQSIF
# T13 sequence (Q8ND76 whole entry partner): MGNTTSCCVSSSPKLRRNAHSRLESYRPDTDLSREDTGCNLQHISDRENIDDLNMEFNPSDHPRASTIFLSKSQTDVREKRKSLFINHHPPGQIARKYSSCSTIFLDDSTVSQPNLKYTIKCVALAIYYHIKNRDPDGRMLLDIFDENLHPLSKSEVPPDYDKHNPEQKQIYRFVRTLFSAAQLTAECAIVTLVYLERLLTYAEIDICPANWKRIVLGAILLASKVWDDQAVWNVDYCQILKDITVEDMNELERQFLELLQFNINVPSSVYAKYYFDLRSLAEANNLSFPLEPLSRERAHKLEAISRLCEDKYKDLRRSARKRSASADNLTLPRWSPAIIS
# T3 sequence (Q02750 whole entry): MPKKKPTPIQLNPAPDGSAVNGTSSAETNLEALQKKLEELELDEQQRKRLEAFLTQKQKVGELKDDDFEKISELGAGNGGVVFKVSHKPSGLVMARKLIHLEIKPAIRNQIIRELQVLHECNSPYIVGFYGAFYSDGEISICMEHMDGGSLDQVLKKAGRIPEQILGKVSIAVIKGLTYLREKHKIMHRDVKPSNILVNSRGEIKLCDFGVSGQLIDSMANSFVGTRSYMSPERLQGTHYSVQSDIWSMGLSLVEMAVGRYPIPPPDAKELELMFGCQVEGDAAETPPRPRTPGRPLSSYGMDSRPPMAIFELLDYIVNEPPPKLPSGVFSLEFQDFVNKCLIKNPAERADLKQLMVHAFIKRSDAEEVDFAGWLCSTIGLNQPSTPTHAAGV
# T2 sequence (Q9Y463 whole entry): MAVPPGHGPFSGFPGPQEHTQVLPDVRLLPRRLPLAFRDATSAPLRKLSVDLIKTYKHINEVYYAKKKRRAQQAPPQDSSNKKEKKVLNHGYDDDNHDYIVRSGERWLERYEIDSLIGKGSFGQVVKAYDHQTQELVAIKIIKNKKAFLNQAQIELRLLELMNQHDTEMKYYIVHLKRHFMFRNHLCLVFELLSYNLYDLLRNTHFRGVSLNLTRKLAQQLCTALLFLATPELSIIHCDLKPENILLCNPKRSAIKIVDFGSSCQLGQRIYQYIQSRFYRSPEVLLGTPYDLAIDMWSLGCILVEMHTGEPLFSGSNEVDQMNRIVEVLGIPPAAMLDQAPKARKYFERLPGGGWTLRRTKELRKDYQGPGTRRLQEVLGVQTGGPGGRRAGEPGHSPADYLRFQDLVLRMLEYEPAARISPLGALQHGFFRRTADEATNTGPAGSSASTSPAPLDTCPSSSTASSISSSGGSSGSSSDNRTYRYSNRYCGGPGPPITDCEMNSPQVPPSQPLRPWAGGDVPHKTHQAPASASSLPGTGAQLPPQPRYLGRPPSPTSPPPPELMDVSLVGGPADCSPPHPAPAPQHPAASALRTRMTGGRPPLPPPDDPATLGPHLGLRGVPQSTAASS
# T9 sequence (O00329 whole entry): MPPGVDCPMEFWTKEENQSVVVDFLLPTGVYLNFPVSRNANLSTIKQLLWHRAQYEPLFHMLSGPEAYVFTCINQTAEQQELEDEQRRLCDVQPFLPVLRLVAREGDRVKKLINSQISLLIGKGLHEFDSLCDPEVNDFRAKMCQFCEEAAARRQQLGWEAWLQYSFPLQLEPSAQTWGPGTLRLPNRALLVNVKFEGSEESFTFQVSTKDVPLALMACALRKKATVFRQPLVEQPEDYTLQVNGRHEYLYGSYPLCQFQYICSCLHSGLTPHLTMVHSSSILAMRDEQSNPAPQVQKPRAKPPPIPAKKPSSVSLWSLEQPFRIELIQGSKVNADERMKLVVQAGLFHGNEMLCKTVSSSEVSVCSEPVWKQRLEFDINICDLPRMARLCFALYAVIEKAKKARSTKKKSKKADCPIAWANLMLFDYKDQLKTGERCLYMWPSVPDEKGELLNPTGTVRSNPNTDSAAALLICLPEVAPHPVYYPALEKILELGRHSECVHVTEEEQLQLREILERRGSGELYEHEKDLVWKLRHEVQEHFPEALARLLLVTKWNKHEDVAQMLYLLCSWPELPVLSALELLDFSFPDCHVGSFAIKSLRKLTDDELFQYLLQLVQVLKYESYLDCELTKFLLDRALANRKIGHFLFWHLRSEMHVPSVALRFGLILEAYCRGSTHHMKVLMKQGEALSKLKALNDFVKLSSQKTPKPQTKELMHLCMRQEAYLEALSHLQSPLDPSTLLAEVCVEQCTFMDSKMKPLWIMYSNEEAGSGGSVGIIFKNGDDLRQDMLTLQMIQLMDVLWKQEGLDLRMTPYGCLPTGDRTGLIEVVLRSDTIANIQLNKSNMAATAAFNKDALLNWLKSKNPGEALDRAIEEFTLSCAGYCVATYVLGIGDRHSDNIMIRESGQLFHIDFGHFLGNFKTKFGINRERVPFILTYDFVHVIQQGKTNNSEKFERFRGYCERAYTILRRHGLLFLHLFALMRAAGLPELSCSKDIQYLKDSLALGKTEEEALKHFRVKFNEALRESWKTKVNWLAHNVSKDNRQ
# T9 sequence (P27986 whole entry partner): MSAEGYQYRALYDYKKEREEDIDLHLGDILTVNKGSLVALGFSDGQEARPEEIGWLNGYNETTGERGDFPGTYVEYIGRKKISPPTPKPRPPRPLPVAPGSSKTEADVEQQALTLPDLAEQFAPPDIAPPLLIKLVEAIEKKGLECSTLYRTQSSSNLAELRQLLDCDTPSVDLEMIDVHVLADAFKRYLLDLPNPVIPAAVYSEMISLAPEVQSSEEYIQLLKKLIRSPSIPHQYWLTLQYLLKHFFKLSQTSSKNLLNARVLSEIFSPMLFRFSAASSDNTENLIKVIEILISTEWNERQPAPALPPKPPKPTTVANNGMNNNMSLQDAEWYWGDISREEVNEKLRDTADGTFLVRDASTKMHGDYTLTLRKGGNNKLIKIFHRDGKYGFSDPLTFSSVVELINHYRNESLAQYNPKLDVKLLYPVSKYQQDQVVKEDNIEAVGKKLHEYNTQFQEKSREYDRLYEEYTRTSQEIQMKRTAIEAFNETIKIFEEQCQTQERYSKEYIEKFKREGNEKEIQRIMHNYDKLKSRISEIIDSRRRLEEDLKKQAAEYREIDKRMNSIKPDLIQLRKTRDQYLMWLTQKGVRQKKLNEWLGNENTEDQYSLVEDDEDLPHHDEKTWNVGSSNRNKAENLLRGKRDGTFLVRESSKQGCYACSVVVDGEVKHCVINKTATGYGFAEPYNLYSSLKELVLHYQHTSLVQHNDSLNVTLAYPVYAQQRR
# T5 sequence (P12931 whole entry T341M): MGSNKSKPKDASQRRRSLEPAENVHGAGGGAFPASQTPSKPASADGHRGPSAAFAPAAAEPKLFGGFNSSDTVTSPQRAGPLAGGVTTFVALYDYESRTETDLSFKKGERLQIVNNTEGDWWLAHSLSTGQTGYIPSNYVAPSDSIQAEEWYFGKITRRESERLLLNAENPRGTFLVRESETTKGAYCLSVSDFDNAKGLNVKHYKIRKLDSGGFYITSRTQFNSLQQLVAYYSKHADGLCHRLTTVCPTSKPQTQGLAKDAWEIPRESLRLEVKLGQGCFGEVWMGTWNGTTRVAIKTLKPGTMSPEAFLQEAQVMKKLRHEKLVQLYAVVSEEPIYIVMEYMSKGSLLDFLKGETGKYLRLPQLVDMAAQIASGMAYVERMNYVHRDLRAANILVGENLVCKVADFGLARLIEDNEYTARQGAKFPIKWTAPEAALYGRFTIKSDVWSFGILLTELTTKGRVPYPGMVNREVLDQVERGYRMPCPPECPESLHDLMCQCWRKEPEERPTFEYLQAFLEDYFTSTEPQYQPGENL
compound,measurement,setting,value
COc1cc(OC)c(Cl)c(-c2ccc3c(NC(=O)c4ccc(N5CCNC(C)(C)C5)cc4)n[nH]c3n2)c1Cl [3D185],inhibition at 0.01 µM,FAK(h); 10 nM,17%
same,inhibition at 0.1 µM,FAK(h); 100 nM,29%
same,inhibition at 1 µM,FAK(h); 1000 nM,58%
same,inhibition at 0.01 µM,DYRK1B(h); 10 nM,12%
same,inhibition at 0.1 µM,DYRK1B(h); 100 nM,3%
same,inhibition at 1 µM,DYRK1B(h); 1000 nM,3%
same,inhibition at 0.01 µM,MEK1(h); 10 nM,10%
same,inhibition at 0.1 µM,MEK1(h); 100 nM,14%
same,inhibition at 1 µM,MEK1(h); 1000 nM,8%
same,inhibition at 0.01 µM,STK33(h); 10 nM,3%
same,inhibition at 0.1 µM,STK33(h); 100 nM,9%
same,inhibition at 1 µM,STK33(h); 1000 nM,13%
same,inhibition at 0.01 µM,Src(T341M)(h); 10 nM,8%
same,inhibition at 0.1 µM,Src(T341M)(h); 100 nM,33%
same,inhibition at 1 µM,Src(T341M)(h); 1000 nM,88%
same,inhibition at 0.01 µM,LOK(h); 10 nM,1%
same,inhibition at 0.1 µM,LOK(h); 100 nM,27%
same,inhibition at 1 µM,LOK(h); 1000 nM,77%
same,inhibition at 0.01 µM,TAO3(h); 10 nM,-1%
same,inhibition at 0.1 µM,TAO3(h); 100 nM,7%
same,inhibition at 1 µM,TAO3(h); 1000 nM,36%
same,inhibition at 0.01 µM,VRK2(h); 10 nM,4%
same,inhibition at 0.1 µM,VRK2(h); 100 nM,11%
same,inhibition at 1 µM,VRK2(h); 1000 nM,17%
same,inhibition at 0.01 µM,[1]; 10 nM,1%
same,inhibition at 0.1 µM,[1]; 100 nM,-4%
same,inhibition at 1 µM,[1]; 1000 nM,5%
same,inhibition at 0.01 µM,PKCβI(h); 10 nM,-7%
same,inhibition at 0.1 µM,PKCβI(h); 100 nM,-3%
same,inhibition at 1 µM,PKCβI(h); 1000 nM,-1%
same,inhibition at 0.01 µM,PDK1(h); 10 nM,-5%
same,inhibition at 0.1 µM,PDK1(h); 100 nM,-14%
same,inhibition at 1 µM,PDK1(h); 1000 nM,-4%
same,inhibition at 0.01 µM,TYK2(h); 10 nM,1%
same,inhibition at 0.1 µM,TYK2(h); 100 nM,14%
same,inhibition at 1 µM,TYK2(h); 1000 nM,67%
same,inhibition at 0.01 µM,CDK18/cyclinY(h); 10 nM,10%
same,inhibition at 0.1 µM,CDK18/cyclinY(h); 100 nM,12%
same,inhibition at 1 µM,CDK18/cyclinY(h); 1000 nM,15%
same,inhibition at 0.01 µM,NIM1(h); 10 nM,-9%
same,inhibition at 0.1 µM,NIM1(h); 100 nM,0%
same,inhibition at 1 µM,NIM1(h); 1000 nM,0%
